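How tested: cells in 96-well plates exposed to compound for 48 hours at five concentrations. GI50 is the concentration that inhibits growth by half.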 Activity calls are given as the source filed them. Cut-off read from the data, not from the text of the source: active = GI50 up to about 1.1 µM and inactive = higher.
Assays:
Experiment in all cases: NCI anticancer screen, dose series, 48 h
786-0 = tested on: 786-0
A498 = tested on: A498
A549 = tested on: A549
ACHN = tested on: ACHN
BT-549 = tested on: BT-549
CAKI-1 = tested on: CAKI-1
CCRF-CEM = tested on: CCRF-CEM
COLO 205 = tested on: COLO 205
DU-145 = tested on: DU-145
EKVX = tested on: EKVX
HCC 2998 = tested on: HCC 2998
HCT-116 = tested on: HCT-116
HCT-15 = tested on: HCT-15
HL-60 = tested on: HL-60
HOP-62 = tested on: HOP-62
HOP-92 = tested on: HOP-92
HT-29 = tested on: HT-29
Hs-578T = tested on: Hs-578T
IGROV-1 = tested on: IGROV-1
K562 = tested on: K562
KM12 = tested on: KM12
LOX IMVI = tested on: LOX IMVI
M14 = tested on: M14
MCF7 = tested on: MCF7
MDA-MB-231 = tested on: MDA-MB-231
MDA-MB-435 = tested on: MDA-MB-435
MDA-N = tested on: MDA-N
MOLT-4 = tested on: MOLT-4
Malme-3M = tested on: Malme-3M
NCI-H226 = tested on: NCI-H226
NCI-H23 = tested on: NCI-H23
NCI-H460 = tested on: NCI-H460
NCI-H522 = tested on: NCI-H522
NCI/ADR-RES = tested on: NCI/ADR-RES
OVCAR-3 = tested on: OVCAR-3
OVCAR-4 = tested on: OVCAR-4
OVCAR-5 = tested on: OVCAR-5
OVCAR-8 = tested on: OVCAR-8
PC-3 = tested on: PC-3
RPMI-8226 = tested on: RPMI-8226
RXF 393 = tested on: RXF 393
SF-268 = tested on: SF-268
SF-295 = tested on: SF-295
SF-539 = tested on: SF-539
SK-MEL-28 = tested on: SK-MEL-28
SK-MEL-2 = tested on: SK-MEL-2
SK-MEL-5 = tested on: SK-MEL-5
SK-OV-3 = tested on: SK-OV-3
SN12C = tested on: SN12C
SNB-19 = tested on: SNB-19
SNB-75 = tested on: SNB-75
SW-620 = tested on: SW-620
T47D = tested on: T47D
TK-10 = tested on: TK-10
U-251 = tested on: U-251
UACC-257 = tested on: UACC-257
UACC-62 = tested on: UACC-62
UO-31 = tested on: UO-31

Measured: GI50

Cn1cnc2c1c(=O)n(CCNCCO)c(=O)n2C
> 100 µM: HCT-15
inactive: 786-0 > 100 µM | A498 > 100 µM | A549 > 100 µM | ACHN > 100 µM | BT-549 > 100 µM | CAKI-1 > 100 µM | CCRF-CEM > 100 µM | COLO 205 > 100 µM | DU-145 > 100 µM | EKVX > 100 µM | HCC 2998 > 100 µM | HCT-116 > 100 µM | HL-60 > 100 µM | HOP-62 > 100 µM | HOP-92 > 100 µM | HT-29 > 100 µM | Hs-578T > 100 µM | IGROV-1 > 100 µM | K562 > 100 µM | KM12 > 100 µM | LOX IMVI > 100 µM | M14 > 100 µM | MCF7 > 100 µM | MDA-MB-231 > 100 µM | MDA-MB-435 > 100 µM | MDA-N > 100 µM | MOLT-4 > 100 µM | Malme-3M > 100 µM | NCI-H226 > 100 µM | NCI-H23 > 100 µM | NCI-H460 > 100 µM | NCI-H522 > 100 µM | NCI/ADR-RES > 100 µM | OVCAR-3 > 100 µM | OVCAR-4 > 100 µM | OVCAR-5 > 100 µM | OVCAR-8 > 100 µM | PC-3 > 100 µM | RPMI-8226 > 100 µM | RXF 393 > 100 µM | SF-268 > 100 µM | SF-295 > 100 µM | SF-539 > 100 µM | SK-MEL-28 > 100 µM | SK-MEL-2 > 100 µM | SK-MEL-5 > 100 µM | SK-OV-3 > 100 µM | SN12C > 100 µM | SNB-19 > 100 µM | SNB-75 > 100 µM | SW-620 > 100 µM | T47D > 100 µM | TK-10 > 100 µM | U-251 > 100 µM | UACC-257 > 100 µM | UACC-62 > 100 µM | UO-31 > 100 µM

Cc1nc(C)c(C(=O)NNC(=O)c2ccccc2)cc1C(=O)NNC(=O)c1ccccc1
> 100 µM: HCT-15
inactive: 786-0 > 100 µM | A498 > 100 µM | A549 > 100 µM | ACHN > 100 µM | BT-549 > 100 µM | CAKI-1 > 100 µM | CCRF-CEM > 100 µM | COLO 205 > 100 µM | DU-145 > 100 µM | EKVX > 10 µM | HCC 2998 > 100 µM | HCT-116 > 100 µM | HL-60 > 100 µM | HOP-62 > 100 µM | HOP-92 > 100 µM | HT-29 > 100 µM | Hs-578T > 100 µM | IGROV-1 > 10 µM | K562 > 100 µM | KM12 > 10 µM | LOX IMVI > 100 µM | M14 > 100 µM | MCF7 > 100 µM | MDA-MB-231 > 100 µM | MDA-MB-435 > 100 µM | MDA-N > 100 µM | MOLT-4 > 100 µM | NCI-H226 > 100 µM | NCI-H23 > 100 µM | NCI-H460 > 100 µM | NCI-H522 > 100 µM | NCI/ADR-RES > 100 µM | OVCAR-3 > 100 µM | OVCAR-4 > 100 µM | OVCAR-5 > 100 µM | OVCAR-8 > 100 µM | PC-3 > 100 µM | RPMI-8226 > 100 µM | RXF 393 > 100 µM | SF-268 > 100 µM | SF-295 > 100 µM | SF-539 > 100 µM | SK-MEL-2 > 100 µM | SK-MEL-5 > 100 µM | SK-OV-3 > 100 µM | SN12C > 100 µM | SNB-19 > 100 µM | SNB-75 > 10 µM | SW-620 > 100 µM | T47D > 100 µM | TK-10 > 100 µM | U-251 > 100 µM | UACC-257 > 100 µM | UACC-62 > 100 µM | UO-31 > 100 µM

— ChEMBL document CHEMBL1201862, “PubChem BioAssay data set” (2004)
